For 45 molecules, inhibition and Ki results are on record in patent publication US8653075B2, “Therapeutic methods employing substituted piperidines which are CCR3 antagonists” (Boehringer Ingelheim International GmbH, priority 2009, dated 2014).

This experiment deals with T1, human chemokine receptor CCR3 (Homo sapiens, UniProt P51677).
T1 construct: expressed in transfected cells; host or cells: K562 cell line (hCCR3-C1 cells), membrane preparation
T1 sequence (P51677 1-355): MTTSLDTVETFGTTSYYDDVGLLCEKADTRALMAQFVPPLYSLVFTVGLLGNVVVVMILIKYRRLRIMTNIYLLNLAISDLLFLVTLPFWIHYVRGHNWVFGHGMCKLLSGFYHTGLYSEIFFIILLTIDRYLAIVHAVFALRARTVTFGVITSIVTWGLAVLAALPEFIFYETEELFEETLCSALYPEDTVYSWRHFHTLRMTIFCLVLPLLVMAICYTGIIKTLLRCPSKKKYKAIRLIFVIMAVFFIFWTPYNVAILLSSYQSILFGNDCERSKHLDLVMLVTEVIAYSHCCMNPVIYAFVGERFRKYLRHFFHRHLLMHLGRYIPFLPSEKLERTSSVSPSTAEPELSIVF
Nature of the experiment: CCR3 receptor binding assay (SPA, 125I-eotaxin-1 displacement, hCCR3-C1 K562 cell membranes). The settings on record: human Eotaxin-1 at human CCR3-Rezeptor; for inhibition at 1 µM: 1 μM test compound, read-out: CCR3 % inh @ 1 μM; for Ki: dose range 0.1 to 10000 nM. In a few lines:
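SPA displacement of recombinant human 125I-eotaxin-1 (30.000 dpm per well) from membranes of CCR3-transfected K562 cells (0.5-10 μg protein/well) on WGA beads. Buffer was 25 mM HEPES, 25 mM MgCl2, 1 mM CaCl2, 0.1% BSA; incubation 2 h at room temperature. Specific binding was total minus NSB (unlabelled eotaxin-1), giving % inhibition and Ki.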

Molecules are shown by their SMILES.

In general, Ki refers to the equilibrium dissociation constant of an inhibitor or competing ligand from its target.

As to `Cc1cc(CN2CCC(N3C(=O)N(C)C[C@@H]3C(=O)Nc3cc(C4CC4)nn3C)CC2)ccc1Cl` [Example 130], the inhibition at 1 µM was found to be 91% and the Ki is 77 nM.
The matching figures for `CNC(=O)c1cccc(NC(=O)[C@H]2CN(C)C(=O)N2C2CCN(Cc3ccc(Cl)c(C)c3)CC2)c1` [Example 131]: 89% and 85 nM.
The corresponding values for `Cc1cc(C(=O)N2CCCC2)cc(NC(=O)[C@H]2CCC(=O)N2C2CCN(Cc3ccc(Cl)c(C)c3)CC2)n1` [Example 132] are 102% and 1 nM.
In the case of `Cc1cc(CN2CCC(N3C(=O)CC[C@@H]3C(=O)Nc3cccc(C(=O)N(C)C(C)C)c3)CC2)ccc1Cl` [Example 133], the inhibition at 1 µM came out at 100% and the Ki was 3 nM.
The matching figures for `Cc1cc(CN2CCC(N3C(=O)CC[C@@H]3C(=O)Nc3cccc(C(=O)NC4CCC4)c3)CC2)ccc1Cl` [Example 134]: 101% and 3 nM.
In the case of `Cc1cc(C(=O)N(C)C)cc(NC(=O)[C@H]2CCC(=O)N2C2CCN(Cc3ccc(Cl)c(C)c3)CC2)n1` [Example 135], the inhibition at 1 µM worked out at 101% and the Ki was 3 nM.
The corresponding values for `Cc1cc(CN2CCC(N3C(=O)CC[C@@H]3C(=O)Nc3cccc(C(=O)NCC4CC4)c3)CC2)ccc1Cl` [Example 136] are 100% and 4 nM.
The matching figures for `Cc1cc(CN2CCC(N3C(=O)CC[C@@H]3C(=O)Nc3cccc(C(=O)NCC(C)C)c3)CC2)ccc1Cl` [Example 137]: 101% and 4 nM.
The matching figures for `CCC(C)N(C)C(=O)c1cccc(NC(=O)[C@H]2CCC(=O)N2C2CCN(Cc3ccc(Cl)c(C)c3)CC2)c1` (stereo partly drawn) [Example 138]: 101% and 4 nM.
Consider `Cc1cc(CN2CCC(N3C(=O)CC[C@@H]3C(=O)Nc3cc(C(=O)N4CCCC4)ccn3)CC2)ccc1Cl` [Example 139], for which the inhibition at 1 µM was 101% and the inhibition constant (Ki) worked out at 5 nM.
The matching figures for `Cc1cc(C(=O)N2CCOCC2)cc(NC(=O)[C@H]2CCC(=O)N2C2CCN(Cc3ccc(Cl)c(C)c3)CC2)n1` [Example 140]: 98% and 6 nM.
The corresponding values for `Cc1cc(CN2CCC(N3C(=O)CC[C@@H]3C(=O)Nc3cccc(C(=O)N(C)C)c3)CC2)ccc1Cl` [Example 141] are 94% and 6 nM.
The corresponding values for `CNC(=O)c1cc(C)cc(NC(=O)[C@H]2CCC(=O)N2C2CCN(Cc3ccc(Cl)c(C)c3)CC2)c1` [Example 142] are 100% and 17 nM.
Regarding `CCC(C)NC(=O)c1cccc(NC(=O)[C@H]2CCC(=O)N2C2CCN(Cc3ccc(Cl)c(C)c3)CC2)c1` (stereo partly drawn) [Example 143], the inhibition at 1 µM came out at 99% and the Ki was 7 nM.
The matching figures for `Cc1cc(CN2CCC(N3C(=O)CC[C@@H]3C(=O)Nc3cccc(C(=O)N(C)C4CC4)c3)CC2)ccc1Cl` [Example 144]: 100% and 7 nM.
The matching figures for `Cc1cc(CN2CCC(N3C(=O)CC[C@@H]3C(=O)Nc3cccc(C(=O)NCC(F)F)c3)CC2)ccc1Cl` [Example 145]: 99% and 8 nM.
The corresponding values for `Cc1cc(CN2CCC(N3C(=O)CC[C@@H]3C(=O)Nc3cccc(C(=O)N4CCCC4)c3)CC2)ccc1Cl` [Example 146] are 100% and 8 nM.
Take `Cc1cc(CN2CCC(N3C(=O)CC[C@@H]3C(=O)Nc3cc(C(=O)N(C)C)ccn3)CC2)ccc1Cl` [Example 147]: the inhibition at 1 µM worked out at 99% and the Ki is 8 nM.
The corresponding values for `Cc1cc(CN2CCC(N3C(=O)CC[C@@H]3C(=O)Nc3cccc(C(=O)NC4CC4)c3)CC2)ccc1Cl` [Example 148] are 99% and 10 nM.
In the case of `Cc1cc(CN2CCC(N3C(=O)CC[C@@H]3C(=O)Nc3cccc(C(=O)N(C)Cc4ccco4)c3)CC2)ccc1Cl` [Example 149], the inhibition at 1 µM was determined as 99% and the Ki amounted to 10 nM.
With `CNC(=O)c1cc(C)nc(NC(=O)[C@H]2CCC(=O)N2C2CCN(Cc3ccc(Cl)c(C)c3)CC2)c1` [Example 150], the inhibition at 1 µM amounted to 97% and the affinity, expressed as Ki, was 10 nM.
As to `CNC(=O)c1cccc(NC(=O)[C@H]2CCC(=O)N2C2CCN(Cc3ccc(Cl)c(C)c3)CC2)c1` [Example 151], the inhibition at 1 µM worked out at 95% and the Ki was found to be 18 nM.
The matching figures for `Cc1cc(CN2CCC(N3C(=O)CC[C@@H]3C(=O)Nc3cccc(C(=O)N4CCC4)c3)CC2)ccc1Cl` [Example 152]: 100% and 12 nM.
The corresponding values for `Cc1cc(CN2CCC(N3C(=O)CC[C@@H]3C(=O)Nc3cccc(C(=O)N4CCCCC4CO)c3)CC2)ccc1Cl` (stereo partly drawn) [Example 153] are 99% and 12 nM.
The matching figures for `Cc1nnc(NC(=O)c2cccc(NC(=O)[C@H]3CCC(=O)N3C3CCN(Cc4ccc(Cl)c(C)c4)CC3)c2)s1` [Example 154]: 98% and 14 nM.
On to `CCn1cc(NC(=O)[C@H]2CCC(=O)N2C2CCN(Cc3ccc(Cl)c(C)c3)CC2)cc1C(=O)NC` [Example 155], for which the inhibition at 1 µM worked out at 98% and the Ki came to 15 nM.
The corresponding values for `CCN(CCO)C(=O)c1cccc(NC(=O)[C@H]2CCC(=O)N2C2CCN(Cc3ccc(Cl)c(C)c3)CC2)c1` [Example 156] are 98% and 15 nM.
Consider `CCN(CC)C(=O)c1cccc(NC(=O)[C@H]2CCC(=O)N2C2CCN(Cc3ccc(Cl)c(C)c3)CC2)c1` [Example 157], for which the inhibition at 1 µM was determined as 99% and the Ki stood at 15 nM.
The matching figures for `Cc1cc(CN2CCC(N3C(=O)CC[C@@H]3C(=O)Nc3cccc(C(=O)NC(C)(C)C)c3)CC2)ccc1Cl` [Example 158]: 100% and 16 nM.
In the case of `Cc1cc(CN2CCC(N3C(=O)CC[C@@H]3C(=O)Nc3cccc(C(=O)N(C)CCO)c3)CC2)ccc1Cl` [Example 159], the inhibition at 1 µM turned out to be 96% and the inhibition constant Ki is 19 nM.
The matching figures for `Cc1cc(CN2CCC(N3C(=O)CC[C@@H]3C(=O)Nc3cc(C(=O)N4CCOCC4)ccn3)CC2)ccc1Cl` [Example 160]: 97% and 19 nM.
Regarding `Cc1cc(CN2CCC(N3C(=O)CC[C@@H]3C(=O)Nc3cccc(C(=O)NCC4CCCCO4)c3)CC2)ccc1Cl` (stereo partly drawn) [Example 161], the inhibition at 1 µM was found to be 97% and the Ki stood at 20 nM.
The matching figures for `Cc1cc(CN2CCC(N3C(=O)CC[C@@H]3C(=O)Nc3cccc(C(=O)NC[C@@H]4CCCO4)c3)CC2)ccc1Cl` [Example 162]: 97% and 20 nM.
The corresponding values for `Cc1cc(CN2CCC(N3C(=O)CC[C@@H]3C(=O)Nc3cccc(C(=O)NCC(C)(C)C)c3)CC2)ccc1Cl` [Example 163] are 99% and 23 nM.
The corresponding values for `CCn1cc(NC(=O)[C@H]2CCC(=O)N2C2CCN(Cc3ccc(Cl)c(C)c3)CC2)cc1C(=O)N1CCCC1` [Example 164] are 96% and 24 nM.
As for `CCNC(=O)c1cc(NC(=O)[C@H]2CCC(=O)N2C2CCN(Cc3ccc(Cl)c(C)c3)CC2)ccc1C` [Example 165], the inhibition at 1 µM came to 90% and the Ki came to 62 nM.
The matching figures for `CNC(=O)c1cccc(N(C)C(=O)[C@H]2CCC(=O)N2C2CCN(Cc3ccc(Cl)c(C)c3)CC2)c1` [Example 166]: 60% and 905 nM.
The corresponding values for `Cc1cc(NC(=O)[C@H]2CCC(=O)N2C2CCN(Cc3ccc(Cl)c(C)c3)CC2)cc(C(=O)N(C)C)c1` [Example 167] are 98% and 6 nM.
Turning to `Cc1cc(CN2CCC(N3C(=O)CC[C@@H]3C(=O)Nc3cc(Cl)cc(C(=O)N(C)C)c3)CC2)ccc1Cl` [Example 168], the inhibition at 1 µM worked out at 99% and the Ki turned out to be 4 nM.
The matching figures for `CNC(=O)c1cc(Cl)cc(NC(=O)[C@H]2CCC(=O)N2C2CCN(Cc3ccc(Cl)c(C)c3)CC2)c1` [Example 169]: 99% and 19 nM.
The matching figures for `Cc1cc(CN2CCC(N3C(=O)CC[C@@H]3C(=O)Nc3cc(C(=O)N(C)CCO)cc(C(C)(C)C)c3)CC2)ccc1Cl` [Example 170]: 100% and 6 nM.
The matching figures for `Cc1cc(CN2CCC(N3C(=O)CC[C@@H]3C(=O)Nc3cc(C(=O)N(C)C)cc(C(C)(C)C)c3)CC2)ccc1Cl` [Example 171]: 99% and 5 nM.
Turning to `CNC(=O)c1cc(NC(=O)[C@H]2CCC(=O)N2C2CCN(Cc3ccc(Cl)c(C)c3)CC2)cc(C(C)(C)C)c1` [Example 172], the inhibition at 1 µM was found to be 95% and the Ki was determined as 7 nM.
The corresponding values for `COc1cc(NC(=O)[C@H]2CCC(=O)N2C2CCN(Cc3ccc(Cl)c(C)c3)CC2)cc(C(=O)N(C)C)c1` [Example 173] are 99% and 13 nM.
The matching figures for `CNC(=O)c1cc(NC(=O)[C@H]2CCC(=O)N2C2CCN(Cc3ccc(Cl)c(C)c3)CC2)cc(OC)c1` [Example 174]: 99% and 13 nM.
